Measured values from patent US11964996B2, “2-alkynylmannose derivative and application thereof” (priority 2020, dated 2024).

Molecular target: T1, FimH proteins (Escherichia coli, UniProt Q1R2J4)
T1 construct: endogenous in cells; host or cells: UPEC strain UTI89 (whole bacteria)
Assay: hemagglutination inhibition (HAI) assay: UPEC UTI89 with guinea pig red blood cells
Format: cell-based, uropathogenic Escherichia coli (UPEC) UTI89
Conditions: read-out: HAI EC90 (minimum concentration for inhibiting hemagglutination)
Protocol: In the present example, the mannose derivatives A1 to A107 that were prepared in Examples 1 to 12 were analyzed in hemagglutination inhibition (HAI) assays to determine inhibitory effects of the compounds on the function/activity of FimH proteins.
1. Preparation of a guinea pig red blood cell solution: an adult guinea pig was anesthetized with ethyl ether, blood was sampled from the heart, placed in an EDTA blood collection tube, and centrifuged at 2,000 rpm for 5 min, serum was removed, the sample was transferred in a centrifuge tube (15 mL), sterilized PBS was added, the sample was centrifuged at 1,500 rpm for 10 min, a supernatant was removed, the sample was transferred in a centrifuge tube (50 mL), PBS was added, the sample was centrifuged at 1,500 rpm for 10 min and repeatedly washed twice, and red blood cells were slightly aspirated into a new centrifuge tube (50 mL) to obtain a 5% guinea pig red blood cell solution.
2. Preparation of a bacteria solution: a UPEC cell line UTI89 was inoculated on a medium plate and cultured in an incubator at 37° C. overnight. Single colonies were picked and inoculated in an LB medium in a sterilized conical flask, and cultured at 37° C. and 170 r/min overnight. When an OD value at 540 nm was about 0.8 on a microplate reader, the bacterial concentration was about 10^8-10^9 cfu/mL, the bacteria solution was centrifuged at 2,000 rpm for 10 min, a supernatant was removed, and 1 mL of bacteria solution was prepared into 0.1 mL of PBS bacteria solution. […] The bacteria and the medium were uniformly mixed by shaking, and reacted in an incubator at 25° C. for about 20-40 min. When the plate was read, the wells in which complete agglutination occurred were used as 4HAU for the hemagglutination titer of the bacteria. For example, if the endpoint titer of hemagglutination is 1:256, the dilution multiple of the 4HAU antigen is 1:64 (256 divided by 4). Bacteria solutions at corresponding concentrations were prepared according to the experimental results.
3. Activity assay: a compound to be tested or a standard product was placed in a 96-well microtest plate, 50 μL of drug at an initial concentration of 200 μM was placed in the first well, and from the second well, 25 μL of PBS was added to each well to dilute the drug in proportion. The drug and the medium in the first well were mixed, 25 μL of mixed drug solution was placed in the second well, the drug solution was diluted in sequence to the last well, and 25 μL of drug solution was removed. 25 μL of bacteria solution was placed in each well of the culture plate containing the diluted drug, and cultured at 37° C. for 40 min. 25 μL of 5% guinea pig red blood cell suspension was placed in each well, and slightly uniformly mixed with the drug, and the plate was placed at 4° C. for about 1 h. When results were determined, the plate was tilted 60°, and whether the red blood cells flowed like teardrops was observed.
Mannosyl proteins are expressed on the surface of red blood cells in a guinea pig, which can bind to FimH proteins of UTI89 to cause hemagglutination. It can be observed with the naked eyes that the red blood cells form film-like agglutination at the bottom of the well, and loose red dots can be seen in the center. The FimH protein inhibitor competitively binds to FimH proteins to inhibit hemagglutination. It can be observed with the naked eyes that all the red blood cells sink and concentrate at the bottom of the well to form dense dots. The minimum concentration for inhibiting hemagglutination is expressed as an EC90 value of a compound. The final concentration of the compound in the first well is 66700 nM, the concentration in the second well is half that in the first well, the concentration in the third well is half that in the second well, and so on. […] A low EC90 value indicates high activity of a compound.

Structure (SMILES)	EC90
OC[C@H]1O[C@H](C#Cc2cnn(-c3cccc(F)c3)c2)[C@](O)(C#Cc2ccccc2)[C@@H](O)[C@@H]1O [Compound A101]	0.25 nM
COCCOc1ccc(-n2cc(C#C[C@H]3O[C@H](CO)[C@@H](O)[C@H](O)[C@@]3(O)C#Cc3ccccc3)cn2)cc1 [Compound A102]	< 0.1 nM
OC[C@H]1O[C@H](C#Cc2cnn(-c3ccc(O[C@@H]4CCOC4)cc3)c2)[C@](O)(C#Cc2ccccc2)[C@@H](O)[C@@H]1O [Compound A103]	< 0.1 nM
OC[C@H]1O[C@H](C#Cc2cnn(-c3ccc(O[C@H]4CCOC4)cc3)c2)[C@](O)(C#Cc2ccccc2)[C@@H](O)[C@@H]1O [Compound A104]	< 0.1 nM
OC[C@H]1O[C@H](C#Cc2cnn(-c3ccc(C4CC4)cc3)c2)[C@](O)(C#CC2CC2)[C@@H](O)[C@@H]1O [Compound A105]	0.13 nM
CCOc1ccc(-n2cc(C#C[C@H]3O[C@H](CO)[C@@H](O)[C@H](O)[C@@]3(O)C#CC3CC3)cn2)cc1 [Compound A106]	< 0.1 nM
CC(C)Oc1ccc(-n2cc(C#C[C@H]3O[C@H](CO)[C@@H](O)[C@H](O)[C@@]3(O)C#CC3CC3)cn2)cc1 [Compound A107]	< 0.1 nM
